Test results published in US20230114728A1 (Venatorx Pharmaceuticals, Inc., priority 2019, published 2023).
Values after ≈ are worked out from the molar mass of the structure shown.

Experiments:
Test in all cases: Broth microdilution MIC in iron-depleted CAMHB (IDM)
Assay type in all cases: cell-based
A. baumannii ATCC 19606 = conditions: Acinetobacter baumannii, ATCC19606, read-out: Minimum Inhibitory Concentration, ATCC 19606
Method: (§1) Example IV: In Vitro Antibacterial Assays in Iron-Depleted Cation-Adjusted Mueller-Hinton Broth
(§2) To determine the ability of test compounds to inhibit the growth bacterial strains under conditions of iron-depletion, classic cell based broth microdilution minimum inhibitory concentration (MIC) assays were employed. MIC assays are performed according to CLSI methods except where otherwise noted (CLSI, 2018 and CLSI, 2019). The reference type strain E. coli ATCC 25922 was used to determine the ability of the PBP inhibitors to inhibit the growth of Enterobacteriaceae. Wild-type P. aeruginosa ATCC 27853, A. baumannii ATCC 17978 and A. baumannii ATCC 19606, along with the hyper-permeable P. aeruginosa ATCC 35151, an engineered efflux pump-compromised strain of P. aeruginosa (ΔmexAB-oprM), and an engineered efflux-pump compromised strain of A. baumannii IL123 (ABΔ3-ARAEcPore) were used to determine the ability of PBP inhibitors to penetrate the outer membrane of P. aeruginosa and A. baumannii and assess antibacterial activity against these important gram-negative organisms.
(§3) Briefly, cryo-preserved bacterial cultures of challenge strains are streaked for isolation on appropriate agar medium, in this case cation-adjusted Mueller Hinton agar. Following incubation to allow growth of the colonies, plates are sealed with parafilm and stored refrigerated for up to two weeks. For preparation of assay inoculum and to ensure low variability, at least 5 colonies are picked from the agar plates with an inoculating loop and aseptically transferred to a culture tube containing 3 mL of iron-depleted cation-adjusted Mueller Hinton broth (IDM)—see below for IDM preparation. The broth culture is grown for 3-5 hours at 37° C. with shaking at 200 rpm. Meanwhile, 2-fold serial dilutions of test compounds are conducted in a 96-well plate with a final volume of 75 μL per well at 2-fold the final desired concentration. After the dilution plates are set up the growing cultures are then diluted in a cuvette containing IDM and the optical density is measured at 600 nm. The inoculum is diluted such that 75 μL of this culture in IDM results in a starting bacterial concentration of 2-8×10^5 CFU/mL when added to the dilution plates. The plates are incubated for 16-20 hours for Enterobacteriaceae and Pseudomonas and 20-24 hours for Acinetobacter at 37° C. The MIC values are read visually as the lowest concentration well with no bacterial growth.
(§4) Method for Iron-Depleted Cation-Adjusted Mueller Hinton Broth (IDM) Preparation:
(§5) • Prepare cation-adjusted Mueller Hinton broth as per the manufacturer's recommendations and autoclave. • Add 100 g/L Chelex 100 resin, cover with foil and incubate with stirring for 2 hours • Remove Chelex 100 resin by filtration with 0.45 μm filter flask • Add the following back to the medium: • CaCl2 dihydrate: 82.5 mg/L • MgCl2 hexahydrate: 94.1 mg/L • ZnSO4: 10 μM • Adjust pH of medium to 7.3 with 5 N HCl • Sterilize using a 0.22 µm filter flask

P. aeruginosa ATCC 27853 = conditions: Pseudomonas aeruginosa, ATCC27853, read-out: Minimum Inhibitory Concentration, P. aeruginosa ATCC 27853
Method: as §1, §2, §3, §4, §5

A. baumannii ATCC 17978 = conditions: Acinetobacter baumannii, ATCC17978, read-out: Minimum Inhibitory Concentration, ATCC 17978
Method: as §1, §2, §3, §4, §5

[1] = tested on: A. baumannii CDC-0083 producing NDM-1, PER-7, OXA-23, and OXA-69; conditions: Acinetobacter baumannii, read-out: Minimum Inhibitory Concentration, CDC-0083
Method: as §1, §2, §3, §4, §5

[2] = tested on: P. aeruginosa CDC-0090 producing KPC-5, OXA-50, and PAO; conditions: Pseudomonas aeruginosa, read-out: Minimum Inhibitory Concentration, P. aeruginosa CDC-0090
Method: as §1, §2, §3, §4, §5

[3] = tested on: A. baumannii CDC-0036 OXA-65, and OXA-24; conditions: Acinetobacter baumannii, read-out: Minimum Inhibitory Concentration, CDC-0036
Method: as §1, §2, §3, §4, §5

[4] = tested on: P. aeruginosa CDC-0095 producing OXA-50, and PAO; conditions: Pseudomonas aeruginosa, read-out: Minimum Inhibitory Concentration, P. aeruginosa CDC-0095
Method: as §1, §2, §3, §4, §5

P. aeruginosa ATCC 35151 = conditions: Pseudomonas aeruginosa, ATCC35151; iron-depleted MHB (IDM); hyper-permeable strain; read-out: Minimum Inhibitory Concentration, P. aeruginosa ATCC 35151
Method: as §1, §2, §3, §4, §5

[5] = tested on: P. aeruginosa CDC-0054 producing VIM-4, OXA-50, and PAO; conditions: Pseudomonas aeruginosa, read-out: Minimum Inhibitory Concentration, P. aeruginosa CDC-0054
Method: as §1, §2, §3, §4, §5

[6] = tested on: A. baumannii CDC-0033 producing NDM-1, and OXA-94; conditions: Acinetobacter baumannii, read-out: Minimum Inhibitory Concentration, CDC-0033
Method: as §1, §2, §3, §4, §5

[7] = tested on: P. aeruginosa (ΔmexAB-oprM); conditions: Pseudomonas aeruginosa, read-out: Minimum Inhibitory Concentration, P. aeruginosa ΔmexAB-OprM
Method: as §1, §2, §3, §4, §5

| Structure (SMILES) | MIC (A. baumannii ATCC 19606) [µg/mL] | MIC (P. aeruginosa ATCC 27853) [µg/mL] | MIC (A. baumannii ATCC 17978) [µg/mL] | MIC [1] [µg/mL] | MIC [2] [µg/mL] | MIC [3] [µg/mL] | MIC [4] [µg/mL] | MIC (P. aeruginosa ATCC 35151) [µg/mL] | MIC [5] [µg/mL] | MIC [6] [µg/mL] | MIC [7] [µg/mL] |
| --- | --- | --- | --- | --- | --- | --- | --- | --- | --- | --- | --- |
| NC(C(=O)N[C@H]1Cc2ccc(F)c(C(=O)O)c2OB1O)c1c(F)cc(O)c(O)c1Cl (stereo partly drawn) [Example 25, (3R)-3-(2-amino-2-(2-chloro-6-fluoro-3,4-dihydroxyphenyl)acetamido)-7-fluoro-2-hydroxy-3,4-dihydro-2H-benzo[e][1,2]oxaborinine-8-carboxylic acid] | 32 to 64 (≈ 72.3 to 145 µM) | 32 to 64 (≈ 72.3 to 145 µM) | 32 to 64 (≈ 72.3 to 145 µM) | 32 to 64 (≈ 72.3 to 145 µM) | 32 to 64 (≈ 72.3 to 145 µM) | 32 to 64 (≈ 72.3 to 145 µM) | 32 to 64 (≈ 72.3 to 145 µM) | 8 to 16 (≈ 18.1 to 36.2 µM) | 32 to 64 (≈ 72.3 to 145 µM) | 32 to 64 (≈ 72.3 to 145 µM) | 32 to 64 (≈ 72.3 to 145 µM) |
| O=C(O)c1ccc(C(NC(=O)c2c(F)cc(O)c(O)c2Cl)C(=O)N[C@H]2Cc3ccc(F)c(C(=O)O)c3OB2O)cc1F (stereo partly drawn) [Example 71, (3R)-3-(2-(4-carboxy-3-fluorophenyl)-2-(2-chloro-6-fluoro-3,4-dihydroxybenzamido)acetamido)-7-fluoro-2-hydroxy-3,4-dihydro-2H-benzo[e][1,2]oxaborinine-8-carboxylic acid] | 32 to 64 (≈ 52.6 to 105 µM) | 0.5 to 1 (≈ 0.821 to 1.64 µM) | 32 to 64 (≈ 52.6 to 105 µM) | 32 to 64 (≈ 52.6 to 105 µM) | 2 to 4 (≈ 3.29 to 6.57 µM) | 32 to 64 (≈ 52.6 to 105 µM) | 0.5 to 1 (≈ 0.821 to 1.64 µM) | 0.25 (≈ 0.411 µM) | 0.5 to 1 (≈ 0.821 to 1.64 µM) | 32 to 64 (≈ 52.6 to 105 µM) | 0.25 (≈ 0.411 µM) |
| CCN1CCN(C(=O)NC(C(=O)N[C@H]2Cc3cccc(C(=O)O)c3OB2O)c2cccc(NC(=O)c3ccc(O)c(O)c3Cl)c2)C(=O)C1=O (stereo partly drawn) [Example 73, (3R)-3-(2-(3-(2-chloro-3,4-dihydroxybenzamido)phenyl)-2-(4-ethyl-2,3-dioxopiperazine-1-carboxamido)acetamido)-2-hydroxy-3,4-dihydro-2H-benzo[e][1,2]oxaborinine-8-carboxylic acid] | 2 to 4 (≈ 2.88 to 5.76 µM) | 8 to 16 (≈ 11.5 to 23.1 µM) | 2 to 4 (≈ 2.88 to 5.76 µM) | 32 to 64 (≈ 46.1 to 92.2 µM) | 2 to 4 (≈ 2.88 to 5.76 µM) | 32 to 64 (≈ 46.1 to 92.2 µM) | 2 to 4 (≈ 2.88 to 5.76 µM) | 0.25 (≈ 0.36 µM) | 2 to 4 (≈ 2.88 to 5.76 µM) | 32 to 64 (≈ 46.1 to 92.2 µM) | 0.25 (≈ 0.36 µM) |
| CCN1CCN(C(=O)NC(C(=O)N[C@H]2Cc3cccc(C(=O)O)c3OB2O)c2ccc(O)c(NC(=O)c3ccc(O)c(O)c3Cl)c2)C(=O)C1=O (stereo partly drawn) [Example 74, (3R)-3-(2-(3-(2-chloro-3,4-dihydroxybenzamido)-4-hydroxyphenyl)-2-(4-ethyl-2,3-dioxopiperazine-1-carboxamido)acetamido)-2-hydroxy-3,4-dihydro-2H-benzo[e][1,2]oxaborinine-8-carboxylic acid] | 32 to 64 (≈ 45.1 to 90.2 µM) | 8 to 16 (≈ 11.3 to 22.5 µM) | 32 to 64 (≈ 45.1 to 90.2 µM) | 32 to 64 (≈ 45.1 to 90.2 µM) | 32 to 64 (≈ 45.1 to 90.2 µM) | 32 to 64 (≈ 45.1 to 90.2 µM) | 0.5 to 1 (≈ 0.704 to 1.41 µM) | 0.25 (≈ 0.352 µM) | 0.5 to 1 (≈ 0.704 to 1.41 µM) | 32 to 64 (≈ 45.1 to 90.2 µM) | 0.5 to 1 (≈ 0.704 to 1.41 µM) |
| CC(C)(C)[C@@H](NC(=O)N1CCN(CCNC(=O)c2c(F)cc(O)c(O)c2Cl)C(=O)C1=O)C(=O)N[C@H]1Cc2ccc(F)c(C(=O)O)c2OB1O [Example 80, (R)-3-((R)-2-(4-(2-(2-chloro-6-fluoro-3,4-dihydroxybenzamido)ethyl)-2,3-dioxopiperazine-1-carboxamido)-3,3-dimethylbutanamido)-7-fluoro-2-hydroxy-3,4-dihydro-2H-benzo[e][1,2]oxaborinine-8-carboxylic acid] | 2 to 4 (≈ 2.82 to 5.63 µM) | 2 to 4 (≈ 2.82 to 5.63 µM) | 0.5 to 1 (≈ 0.704 to 1.41 µM) | 32 to 64 (≈ 45.1 to 90.2 µM) | 2 to 4 (≈ 2.82 to 5.63 µM) | 8 to 16 (≈ 11.3 to 22.5 µM) | 2 to 4 (≈ 2.82 to 5.63 µM) | 0.25 (≈ 0.352 µM) | 2 to 4 (≈ 2.82 to 5.63 µM) | 8 to 16 (≈ 11.3 to 22.5 µM) | 0.25 (≈ 0.352 µM) |
